# Reference: PMC12133000 (PLOS One, 2025)
# Like-named read-outs stand apart in the source and are kept apart here.
# Experiment: Pharmacokinetics of rivaroxaban in rats after avitinib or gefitinib pretreatment
# Format: in vivo, Sprague–Dawley (SD) rats
# Settings: male, Sprague-Dawley, rat, plasma, oral
# Protocol: Eighteen male Sprague–Dawley (SD) rats weighing 300 ± 20 g were provided by the Experimental Animal Center of Wenzhou Medical University (Wenzhou, China) and kept under controlled conditions at a temperature of 23 ± 2 °C, relative humidity of 50 ± 10%, and 12 h light–dark cycle. Eighteen male SD rats were randomly assigned to three groups: avitinib, gefitinib, and control, with six rats per group. Prior to the experiment, the rats were not administered any other medications and fasted for 12 h. The experimental procedures and protocols adhered to Animal Ethics standards and were approved by the Animal Care and Use Committee of Wenzhou Medical University (approval no. wydw2019–650). All rats were anesthetized with sodium pentobarbital (40mg/kg, i.p) to relieve pain. The rats were killed through cervical dislocation.
# Prior to the experiment in vivo, the six rats in the avitinib group were administered 30 mg/kg avitinib and 0.5% sodium carboxymethyl cellulose (CMC-Na) solution by gavage daily for 7 d. […] The supernatant was collected and stored at −80 °C. After thawing, 50 μL of plasma was extracted; 100 μL of acetonitrile solution containing midazolam (200 ng/mL) was then added to induce protein precipitation. After vortexing for 30 s and centrifuging at 13,000 rpm for 5 min, the […].
# All assays were performed in triplicate, and the results are expressed as mean ± standard deviation. DAS software v. […] SPSS v. 25.0 (IBM, NY, USA) was used for data processing. Student’s t-tests were used to detect differences between groups. Differences with p < 0.05 were considered statistically significant.
smiles,measurement,setting,value
"O=C(NC[C@H]1CN(c2ccc(N3CCOCC3=O)cc2)C(=O)O1)c1ccc(Cl)s1 [rivaroxaban, Rivaroxaban]",concentration at 6 h,"10 mg/kg, rivaroxaban ng/ml mean, control (rivaroxaban alone) group, mean of rats 13-18, time 6",141 ng/mL
same,concentration at 8 h,"10 mg/kg, rivaroxaban ng/ml mean, control (rivaroxaban alone) group, mean of rats 13-18, time 8",93 ng/mL
same,concentration at 12 h,"10 mg/kg, rivaroxaban ng/ml mean, control (rivaroxaban alone) group, mean of rats 13-18, time 12",76.8 ng/mL
same,concentration at 0.25 h,"10 mg/kg, rivaroxaban ng/ml, 对照 (control, rivaroxaban alone) group, individual rats 13-18, time 0.25",305 ng/mL
same,concentration at 0.5 h,"10 mg/kg, rivaroxaban ng/ml, 对照 (control, rivaroxaban alone) group, individual rats 13-18, time 0.5",434 ng/mL
same,concentration at 1 h,"10 mg/kg, rivaroxaban ng/ml, 对照 (control, rivaroxaban alone) group, individual rats 13-18, time 1",458 ng/mL
same,concentration at 4 h,"10 mg/kg, rivaroxaban ng/ml, 对照 (control, rivaroxaban alone) group, individual rats 13-18, time 4",190 ng/mL
same,concentration at 12 h,"gefitinib group, Mean, read-out: C_last",2070 ng/mL
same,concentration at 5 min,"plasma concentration of rivaroxaban, 5 min, avitinib group, Mean",284 ng/mL
same,concentration at 5 min,"plasma concentration of rivaroxaban, 5 min, avitinib group, single rats No1-No6",237 ng/mL
same,concentration at 5 min,"plasma concentration of rivaroxaban, 5 min, gefitinib group, Mean",626 ng/mL
same,concentration at 0.25 h,"plasma concentration of rivaroxaban, 0.25 h, avitinib group, Mean",588 ng/mL
same,concentration at 0.25 h,"plasma concentration of rivaroxaban, 0.25 h, gefitinib group, Mean",1740 ng/mL
same,concentration at 0.25 h,"plasma concentration of rivaroxaban, 0.25 h, gefitinib group, single rats No1-No6",1690 ng/mL
same,concentration at 0.5 h,"plasma concentration of rivaroxaban, 0.5 h, avitinib group, Mean",1090 ng/mL
same,concentration at 0.5 h,"plasma concentration of rivaroxaban, 0.5 h, gefitinib group, Mean",3670 ng/mL
same,concentration at 0.5 h,"plasma concentration of rivaroxaban, 0.5 h, gefitinib group, single rats No1-No6",4080 ng/mL
same,concentration at 1 h,"plasma concentration of rivaroxaban, 1 h, avitinib group, Mean",1730 ng/mL
same,concentration at 1 h,"plasma concentration of rivaroxaban, 1 h, gefitinib group, Mean",5580 ng/mL
same,concentration at 1 h,"plasma concentration of rivaroxaban, 1 h, gefitinib group, single rats No1-No6",6110 ng/mL
same,concentration at 2 h,"plasma concentration of rivaroxaban, 2 h, avitinib group, Mean",1650 ng/mL
same,concentration at 2 h,"plasma concentration of rivaroxaban, 2 h, gefitinib group, Mean",7180 ng/mL
same,concentration at 3 h,"plasma concentration of rivaroxaban, 3 h, avitinib group, Mean",1390 ng/mL
same,concentration at 3 h,"plasma concentration of rivaroxaban, 3 h, gefitinib group, Mean",7690 ng/mL
same,concentration at 3 h,"plasma concentration of rivaroxaban, 3 h, gefitinib group, single rats No1-No6",6480 ng/mL
same,concentration at 4 h,"plasma concentration of rivaroxaban, 4 h, avitinib group, Mean",1010 ng/mL
same,concentration at 4 h,"plasma concentration of rivaroxaban, 4 h, gefitinib group, Mean",7800 ng/mL
same,concentration at 4 h,"plasma concentration of rivaroxaban, 4 h, gefitinib group, single rats No1-No6",6780 ng/mL
same,concentration at 6 h,"plasma concentration of rivaroxaban, 6 h, avitinib group, Mean",538 ng/mL
same,concentration at 6 h,"plasma concentration of rivaroxaban, 6 h, gefitinib group, Mean",5500 ng/mL
same,concentration at 6 h,"plasma concentration of rivaroxaban, 6 h, gefitinib group, single rats No1-No6",5830 ng/mL
same,concentration at 8 h,"plasma concentration of rivaroxaban, 8 h, avitinib group, Mean",448 ng/mL
same,concentration at 8 h,"plasma concentration of rivaroxaban, 8 h, gefitinib group, Mean",3710 ng/mL
same,concentration at 8 h,"plasma concentration of rivaroxaban, 8 h, gefitinib group, single rats No1-No6",4960 ng/mL
same,concentration at 12 h,"plasma concentration of rivaroxaban, 12 h, avitinib group, Mean",80.9 ng/mL
same,concentration at 12 h,"plasma concentration of rivaroxaban, 12 h, gefitinib group, Mean",1640 ng/mL
same,concentration at 24 h,"rivaroxaban ng/ml mean, 吉非替尼 (gefitinib) group, mean (four rats), time 24",144 ng/mL
same,concentration at 5 min,"rivaroxaban ng/ml mean, 吉非替尼 (gefitinib) group, mean of rats 7-12, time 0.0833",626 ng/mL
same,concentration at 0.25 h,"rivaroxaban ng/ml mean, 吉非替尼 (gefitinib) group, mean of rats 7-12, time 0.25",1740 ng/mL
same,concentration at 0.5 h,"rivaroxaban ng/ml mean, 吉非替尼 (gefitinib) group, mean of rats 7-12, time 0.5",3670 ng/mL
same,concentration at 1 h,"rivaroxaban ng/ml mean, 吉非替尼 (gefitinib) group, mean of rats 7-12, time 1",5580 ng/mL
same,concentration at 2 h,"rivaroxaban ng/ml mean, 吉非替尼 (gefitinib) group, mean of rats 7-12, time 2",7180 ng/mL
same,concentration at 3 h,"rivaroxaban ng/ml mean, 吉非替尼 (gefitinib) group, mean of rats 7-12, time 3",7690 ng/mL
same,concentration at 4 h,"rivaroxaban ng/ml mean, 吉非替尼 (gefitinib) group, mean of rats 7-12, time 4",7800 ng/mL
same,concentration at 6 h,"rivaroxaban ng/ml mean, 吉非替尼 (gefitinib) group, mean of rats 7-12, time 6",5500 ng/mL
same,concentration at 8 h,"rivaroxaban ng/ml mean, 吉非替尼 (gefitinib) group, mean of rats 7-12, time 8",3710 ng/mL
